According to patent publication US9034866B2 (Genentech, Inc., priority 2012, dated 2015):
Where two headings read alike, the source gives them in different places.

Experiments:
[1] = tested on: p52 (NF-kB2) nuclear translocation in HeLa cells; test: p52 nuclear translocation assay (non-classical NF-kB signaling), high content imaging; format: cell-based; settings: 100 ng/mL anti-lymphotoxin beta receptor antibody for 5 hours, read-out: p52 HeLa Transloc Assay (IC50)
Protocol: (§1) (2) A second set of cell assay are used to define the selectivity of NIK inhibitors toward inhibition of classical vs. non-classical NF-kB signaling and rely on quantification of the nuclear translocation of p52 (NF-kB2) and REL-A (p65) using high content cellular imaging. For the p52 (non-classical NF-kB signaling) nuclear translocation assay, HeLa cells are treated with different concentrations of compounds (0.2% DMSO final) in medium containing 10% fetal bovine serum and then stimulated with 100 ng/mL, of an anti-lymphotoxin beta receptor antibody (R&D Systems) for 5 hours. In the REL-A nuclear translocation assay, HeLa cells are incubated with compounds (0.2% DMSO final) for 4.5 hours in medium containing 10% fetal bovine serum before stimulating them with 10 ng/mL tumor necrosis factor (TNF)-α (R&D Systems) for 30 minutes. Cells are fixed with 4% paraformaldehyde, permeabilized by adding 0.1% Triton X-100 in phosphate buffered saline, and then are incubated with either 2 ug/mL anti-p52 antibody (Millipore) or 400 ng/mL anti-REL-A (p65) antibody (Santa Cruz Biotechnology). Finally, the cells are incubated with an Alexa488-labeled secondary antibody (Invitrogen) and DRAQ5 DNA stain (Biostatus). Imaging is carried out using an Opera reader (Perkin Elmer) and data are analyzed with the aid of Acapella software (Perkin Elmer). The p52 or REL-A translocation into the nucleus is quantified by the ratio of the nuclear to cytoplasmic signal intensity. […] The compounds in listed in Table 1 have the corresponding inhibitory value (IC50 in micromolar) for NIK p52 Translocation Assay as set forth in Table 2.

[2] = molecular target: nuclear factor-kappa B (NF-kB)-inducing kinase (NIK) (Homo sapiens (Human), UniProt Q99558); test: NIK Enzyme Inhibition Assay (Transcreener ADP fluorescence polarization); format: biochemical; settings: purified NIK 0.2-1 nM, 10 uM ATP, Morrison's quadratic equation; read-out: NIK ADP-FP (Ki uM)
nuclear factor-kappa B (NF-kB)-inducing kinase (NIK), sequence (Q99558 whole entry): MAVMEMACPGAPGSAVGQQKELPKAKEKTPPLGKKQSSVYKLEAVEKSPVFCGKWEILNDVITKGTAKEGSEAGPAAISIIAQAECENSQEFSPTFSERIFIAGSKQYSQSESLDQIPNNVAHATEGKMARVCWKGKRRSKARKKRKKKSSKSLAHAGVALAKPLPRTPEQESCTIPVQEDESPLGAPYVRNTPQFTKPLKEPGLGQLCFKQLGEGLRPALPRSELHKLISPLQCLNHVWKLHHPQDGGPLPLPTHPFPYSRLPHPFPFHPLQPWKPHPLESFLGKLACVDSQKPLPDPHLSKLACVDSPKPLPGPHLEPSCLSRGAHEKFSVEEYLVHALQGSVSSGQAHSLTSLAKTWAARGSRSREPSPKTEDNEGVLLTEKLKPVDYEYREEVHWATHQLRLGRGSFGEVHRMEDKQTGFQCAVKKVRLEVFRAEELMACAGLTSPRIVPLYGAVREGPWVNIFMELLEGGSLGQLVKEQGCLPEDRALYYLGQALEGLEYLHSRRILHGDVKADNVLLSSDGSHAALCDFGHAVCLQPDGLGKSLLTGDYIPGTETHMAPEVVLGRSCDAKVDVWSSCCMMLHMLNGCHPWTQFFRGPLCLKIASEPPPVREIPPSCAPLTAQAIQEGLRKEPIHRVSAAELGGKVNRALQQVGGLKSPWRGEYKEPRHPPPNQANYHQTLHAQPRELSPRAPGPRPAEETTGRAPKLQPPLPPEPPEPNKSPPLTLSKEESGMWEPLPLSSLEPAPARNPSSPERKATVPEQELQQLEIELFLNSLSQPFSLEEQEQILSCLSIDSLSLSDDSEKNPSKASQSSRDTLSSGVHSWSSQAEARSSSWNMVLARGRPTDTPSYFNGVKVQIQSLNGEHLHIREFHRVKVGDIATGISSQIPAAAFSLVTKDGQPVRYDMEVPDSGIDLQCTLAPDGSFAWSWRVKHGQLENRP
Summary of the method: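 Baculovirus/insect-cell-expressed NIK (0.2-1 nM) incubated with compounds 1-3.5 h at 10 uM ATP. Buffer: 50 mM HEPES pH 7.2, 10 mM MgCl2, 2 mM DTT, 1% DMSO. ADP detected by Transcreener fluorescence polarization (ADP antibody, AlexaFluor 633 tracer) after EDTA quench.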

[3] = tested on: REL-A (p65) nuclear translocation in HeLa cells; test: REL-A nuclear translocation assay (classical NF-kB signaling), high content imaging; format: cell-based; settings: Homo sapiens, compounds 4.5 hours, then 10 ng/mL TNF-α for 30 minutes, read-out: REL-A HeLa Transloc Assay (IC50)
Protocol: as §1
The compounds in listed in Table 1 has the corresponding inhibitory value (IC50 in micromolar) for NIK RelA Translocation Assay as set forth in Table 2.

Row | Compound | IC50 ([3]; HeLa) [nM] | IC50 ([1]; Homo sapiens, HeLa, 5 h) [nM] | also measured
1 | CC(C)(O)C#Cc1cc2c(cc1F)OCCn1c-2nc(C(N)=O)c1-c1nc(C2CC2)n[nH]1 |  | 112 | Ki [2]: 0.002 µM
2 | Cc1nc([C@](C)(O)C#Cc2cc3c(cc2F)C2CC(C2)n2cc(C(N)=O)nc2-3)no1 |  | 792 | Ki [2]: 0.003 µM
3 | CNC(=O)c1c(C(N)=O)nc2n1C1CC(C1)c1cc(F)c(C#C[C@@](C)(O)c3cc(C)on3)cc1-2 |  | 683 | Ki [2]: 0.008 µM
4 | CC(C)(O)C#Cc1cc2c(cc1F)OCCn1c-2nc(C(N)=O)c1C(O)c1cccc(C(F)(F)F)c1 (centres unmarked) |  | 344 | Ki [2]: 0.019 µM
5 | COC[C@](C)(O)C#Cc1cc2c(cc1F)C1CC(C1)n1cc(C(N)=O)nc1-2 | > 20000 | 2100 | 
6 | Cc1cc([C@](C)(O)C#Cc2ccc3c(c2)-c2nc(C(N)=O)c([C@H](O)c4ccnn4C)n2C2CC3C2)no1 |  | 1200 | 
7 | Cc1cc([C@](C)(O)C#Cc2ccc3c(c2)-n2nc(C(N)=O)cc2[C@H](F)CO3)no1 | > 20000 | 379 | 
8 | COC[C@](C)(O)C#Cc1ccc2c(c1)-c1nc(C(N)=O)sc1[C@H](F)CO2 | 15300 | 682 | 
9 | CC(O)(C#Cc1cc2c(cc1F)C1CC(C1)n1cc(C(N)=O)nc1-2)CF (racemic) |  | 424 | Ki [2]: 0.0031 µM
10 | CN1CCC(O)(C#Cc2ccc3c(c2)-c2nc(C(N)=O)sc2CCO3)C1=O (racemic) | > 20000 | 300 | 
11 | CN1CCC(O)(C#Cc2cc3c(cc2F)OCCn2cc(C(N)=O)nc2-3)C1=O (racemic) | > 20000 | 4100 | 
12 | CC(C)(O)C#Cc1cc2c(cc1F)C1CC(C1)n1c-2nc(C(N)=O)c1CNC(=O)C1CC1 (racemic) | > 20000 | 1400 | 
13 | CNC(=O)c1c(C(N)=O)nc2n1C1CC(C1)c1ccc(C#CC(C)(C)O)cc1-2 (racemic) | > 20000 | 736 | 
14 | NC(=O)c1nc2c(s1)CCOc1cc(F)c(C#CC3(O)CCCC3)cc1-2 [Example 40, 8-fluoro-9-(1-hydroxy-cyclopentyl-ethynyl)-4,5-dihydro-6-oxa-3-thia-1-aza-benzo[e]azulene-2-carboxylic acid amide] |  |  | IC50 ([1]; Homo sapiens): 68 nM; IC50 [3]: 20000 nM
15 | Cc1cc([C@](C)(O)C#Cc2cc3c(cc2F)OCCn2c-3nc(C(N)=O)c2C(=O)NCC#N)no1 [Example 107] |  |  | IC50 ([1]; Homo sapiens): 83.1 nM; IC50 [3]: 20000 nM
16 | CNC(=O)c1c(C(N)=O)nc2n1CCOc1cc(F)c(C#CC(C)(O)COC)cc1-2 (centres unmarked) [Example 108] |  |  | IC50 [3]: 20000 nM
17 | CNC(=O)c1c(C(N)=O)nc2n1CCOc1cc(F)c(C#CC(C)(O)CF)cc1-2 (centres unmarked) [Example 109] |  |  | IC50 ([1]; Homo sapiens): 272 nM
18 | CC(O)(C#Cc1cc2c(cc1F)OCCn1cc(C(N)=O)nc1-2)c1nccs1 (centres unmarked) [Example 144] |  | 483 | 
19 | CC(C)(O)C#Cc1cc2c(cc1F)C1CC(C1)n1c-2nc(C(N)=O)c1C(C)(C)O [Example 248, 9-fluoro-10-(3-hydroxy-3-methyl-but-1-ynyl)-3-(1-hydroxy-1-methyl-ethyl)-5,6,7,12-tetrahydro-5,7-methanobenzo[c]imi-dazo[1,2-a]azepine-2-carboxamide] |  |  | IC50 ([1]; Homo sapiens): 1400 nM; IC50 [3]: > 20000 nM
20 | Cc1cc([C@](C)(O)C#Cc2ccc3c(c2)-c2nc(C(N)=O)c([C@@H](O)c4ccnn4C)n2C2CC3C2)no1 [Example 359] |  | 1200 | 

Continued, in another order:

Row | IC50 ([3]; HeLa) [nM] | Compound | IC50 ([1]; Homo sapiens, HeLa, 5 h) [nM] | also measured
21 | > 20000 | CN1CC[C@@](O)(C#Cc2cc3c(cc2F)C2CC(C2)c2c-3nc(C(N)=O)n2C)C1=O (mixture of isomers) [Example 381, (±)-10-[3-hydroxy-3-(2-pyridyl)but-1-ynyl]-5,6,7,12-tetrahydro-5,7 methanobenzo[c]imidazo[1,2-a]azepine-2-carboxamide] | 285 | 
22 | > 20000 | CNC(=O)c1c(C(N)=O)nc2n1C1CC(C1)c1ccc(C#CC3(O)CCCC3)cc1-2 (racemic) | 709 | 
23 | > 20000 | CN1CCC[C@@](O)(C#Cc2ccc3c(c2)-c2nc(C(N)=O)sc2C(F)(F)CO3)C1=O (racemic) | 184 | 
24 | > 20000 | Cc1nc([C@](C)(O)C#Cc2cc3c(cc2F)OC[C@@H](N(C)C)c2sc(C(N)=O)nc2-3)no1 (racemic) [Example 256] | 2900 | IC50 [1]: 2000 nM
25 | > 20000 | NC(=O)c1nc2n(c1C(O)c1ccn[nH]1)C1CC(C1)c1cc(F)c(C#CC3(O)CCCC3)cc1-2 (racemic) [Example 310] | 2600 | 
26 | > 20000 | CNC(=O)c1c(C(N)=O)nc2n1CCOc1ccc(C#C[C@]3(O)CCN(C)C3=O)cc1-2 (racemic) [Example 419, (±)-9-fluoro-10-(3-hydroxy-3-methyl-but-1-ynyl)-3-[(3-hydroxypyrrolidin-1-yl)methyl]-5,6,7,12-tetrahydro-5,7-methanobenzo[c]imidazo[1,2-a]azepine-2-carboxamide] | 317 | 
27 | > 20000 | CN1CC[C@@](O)(C#Cc2ccc3c(c2)-n2nc(C(N)=O)c(C(F)(F)F)c2CCO3)C1=O (racemic) [Example 500] | 381 | 
28 | > 20000 | Cc1cc([C@@](C)(O)C#Cc2ccc3c(c2)-n2nc(C(N)=O)cc2[C@H](C)CO3)no1 (racemic) [Example 513] |  | 
29 | 20000 | Cc1cc([C@](C)(O)C#Cc2cc3c(cc2F)OC[C@H](N(C)C)c2sc(C(N)=O)nc2-3)no1 (single isomer, unassigned) [Example 257] |  | 
30 | 20000 | Cc1cc([C@](C)(O)C#Cc2cc3c(cc2F)OCCc2sc(C(N)=O)nc2-3)no1 [Example 39] | 38 | 
31 | 20000 | CC(O)(C#Cc1cc2c(cc1F)OCCc1sc(C(N)=O)nc1-2)c1ccccn1 (centres unmarked) [Example 93] | 344 | 
32 | > 20000 | CC(C)(O)C#Cc1cc2c(cc1F)C1CC(C1)n1c-2nc(C(N)=O)c1C1CC1 [Example 195, 3-cyclopropyl-9-fluoro-10-(3-hydroxy-3-methyl-but-1-ynyl)-5,6,7,12-tetrahydro-5,7-methanobenzo[c]imidazo[1,2-a]azepine-2-carboxamide] | 2400 | 
33 | 20000 | Cc1cc([C@](C)(O)C#Cc2cc3c(cc2F)OC[C@@H](N(C)C)c2sc(C(N)=O)nc2-3)no1 [Example 254] |  | 
34 | > 20000 | Cc1nc([C@](C)(O)C#Cc2cc3c(cc2F)OC[C@H](N(C)C)c2sc(C(N)=O)nc2-3)no1 [Example 258, (S)-4-(dimethylamino)-8-fluoro-9-[3-(R)-hydroxy-3-(5-methyl-1,2,4-oxadiazol-3-yl)but-1-ynyl]-4,5-dihydro-[1]benzoxe-pino[5,4-d]thiazole-2-carboxamide] | 2900 | IC50 [1]: 2000 nM
35 | > 20000 | Cc1nc([C@](C)(O)C#Cc2ccc3c(c2)-c2nc(C(N)=O)c(Cc4ccnn4C)n2C2CC3C2)no1 [Example 260, 10-[(3R)-3-hydroxy-3-(5-methyl-1,2,4-oxadiazol-3-yl)but-1-ynyl]-3-[(2-methyl-pyrazol-3-yl)methyl]-5,6,7,12-tetrahydro-5,7-methanobenzo[c]imidazo[1,2-a]aze-pine-2-carboxamide] | 4800 | 
36 | 20000 | CN1CC[C@@](O)(C#Cc2ccc3c(c2)-c2nc(C(N)=O)sc2CCO3)C1=O [Example 276] | 94.6 | 
37 | > 20000 | Cc1nc([C@](C)(O)C#Cc2ccc3c(c2)-c2nc(C(N)=O)sc2[C@H](F)CO3)no1 [Example 464] |  | 
38 | > 20000 | CN1CC[C@@](O)(C#Cc2ccc3c(c2)-c2nc(C(N)=O)sc2[C@](O)(CF)CO3)C1=O [Example 465] |  | 
39 | > 20000 | Cc1nc([C@](C)(O)C#Cc2ccc3c(c2)-c2nc(C(N)=O)sc2[C@](C)(F)CO3)no1 [Example 469] |  | 
40 | > 20000 | C[C@@H]1COc2ccc(C#C[C@]3(O)CCCN(C)C3=O)cc2-c2nc(C(N)=O)sc21 [Example 493, 10-[2-[(3R)-3-hydroxy-1-methyl-2-oxo-pyrrolidin-3-yl]ethynyl]-N3-methyl-5,6,7,12-tetrahydro-5,7-methanobenzo[c]imidazo[1,2-a]azepine-2,3-dicarboxamide] |  | 
41 | > 20000 | Cc1cc([C@@](C)(O)C#Cc2ccc3c(c2)-n2nc(C(N)=O)cc2[C@@H](C)CO3)no1 [Example 519] |  | 
